Reference: patent US20260116910A1, “POLYCYCLIC COMPOUNDS AND METHODS THEREOF” (HEPAITECH (BEIJING) BIOPHARMA TECHNOLOGY CO., LTD., priority 2021, published 2026)
Where “and” joins values, the source holds several entries; their conditions need not be identical. Equal values may be shown once.

Assays:
human FXR (NR1H4) = target: T1, human FXR (NR1H4) (Homo sapiens, UniProt Q96RI1); assay: Human FXR (NR1H4) agonist assessment, FXRE-NanoLuc reporter in HEK293T cells; format: cell-based; settings: FXR activation, HEK293T FXRE-NanoLuc reporter, 24 hr; for EC50: read-out: EC50
T1 sequence (Q96RI1 1-476 isoform Q96RI1-1): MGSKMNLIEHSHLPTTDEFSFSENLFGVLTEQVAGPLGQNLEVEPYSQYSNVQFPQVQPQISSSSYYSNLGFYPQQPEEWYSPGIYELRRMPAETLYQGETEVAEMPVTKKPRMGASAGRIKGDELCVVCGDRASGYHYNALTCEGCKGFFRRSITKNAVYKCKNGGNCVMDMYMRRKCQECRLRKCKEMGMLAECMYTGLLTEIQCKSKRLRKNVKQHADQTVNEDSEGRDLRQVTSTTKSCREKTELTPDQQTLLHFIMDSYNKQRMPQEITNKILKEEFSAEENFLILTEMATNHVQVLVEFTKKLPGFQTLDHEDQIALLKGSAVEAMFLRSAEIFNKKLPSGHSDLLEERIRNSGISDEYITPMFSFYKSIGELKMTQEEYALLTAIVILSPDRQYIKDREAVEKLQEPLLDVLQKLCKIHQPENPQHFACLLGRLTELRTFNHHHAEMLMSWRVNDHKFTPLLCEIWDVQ
In short: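 HEK293T cells stably expressing human FXR with an FXRE-NanoLuc reporter were treated with compounds for 24 hr at 37 °C, with 0.01% DMSO as negative control. Medium was read for luminescence after 5 min with coelenterazine. EC50 was fitted by sigmoid to concentration-response data.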

MRGPRX4 = MRGPRX4 (Homo sapiens, UniProt Q96LA9); assay: MRGPRX4 activation, Fluo-8 Ca2+ FLIPR assay in HEK293T cells stably expressing MRGPRX4; format: cell-based; set-up: key to MRGPRX4 activation, Average / MRGPRX4 activation, Ave.: fluorescence change dF/F0; settings: for EC50: MRGPRX4 activation, Ca2+ fluorescence, no activation in tested range reported as III, read-out: Activity (EC50 μM)
In short: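 Cells seeded overnight to >95% confluence, loaded 40-60 min at room temperature with 2 μM Fluo-8 AM, then kept in HHBS. Baseline read 30 s, compound added, signal followed 150 s more.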

MRGPRX4, sequence (Q96LA9 whole entry): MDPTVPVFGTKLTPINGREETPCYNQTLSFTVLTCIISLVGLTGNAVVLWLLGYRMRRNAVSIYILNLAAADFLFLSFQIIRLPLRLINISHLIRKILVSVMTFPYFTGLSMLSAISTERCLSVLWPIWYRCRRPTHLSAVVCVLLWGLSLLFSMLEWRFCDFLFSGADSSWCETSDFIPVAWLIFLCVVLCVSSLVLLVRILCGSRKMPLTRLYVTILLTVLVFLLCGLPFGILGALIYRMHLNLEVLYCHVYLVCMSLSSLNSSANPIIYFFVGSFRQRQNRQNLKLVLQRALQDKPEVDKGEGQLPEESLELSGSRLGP

Row | Structure (SMILES) | Efficacy (maximum measured induction of NanoLuc, normalized to CDCA set as 100%) (human FXR (NR1H4)) | EC50 (human FXR (NR1H4)) [µM] | MRGPRX4 activation, Average (MRGPRX4; E3-9, Conc. (Log[M]) −4.0) | MRGPRX4 activation, Average (MRGPRX4; E3-9, Conc. (Log[M]) −4.5) | MRGPRX4 activation, Average (MRGPRX4; E3-9, Conc. (Log[M]) −5.0) | MRGPRX4 activation, Average (MRGPRX4; E3-9, Conc. (Log[M]) −5.4) | MRGPRX4 activation, Average (MRGPRX4; E3-9, Conc. (Log[M]) −5.9) | MRGPRX4 activation, Average (MRGPRX4; E3-9, Conc. (Log[M]) −6.4) | MRGPRX4 activation, Average (MRGPRX4; E3-9, Conc. (Log[M]) −6.9) | MRGPRX4 activation, Average (MRGPRX4; E3-9, Conc. (Log[M]) −7.3) | MRGPRX4 activation, Average (MRGPRX4; E3-9, Conc. (Log[M]) −7.8) | MRGPRX4 activation, Average (MRGPRX4; E3-9, Conc. (Log[M]) −8.3) | EC50 (MRGPRX4) [µM] | MRGPRX4 activation, fluorescence change (dF/F0), Average (MRGPRX4; Conc. (Log[M]) −4.5)
1 | CC[C@H]1[C@@H](O)[C@@H]2[C@H](CC[C@]3(C)[C@@H]([C@H](C)CCNC(=O)NS(=O)(=O)c4ccc(Br)cc4OC(F)(F)F)CC[C@@H]23)[C@@]2(C)CC[C@H](F)C[C@@H]12 [9-6] | C (100%<efficacy <=300%) | < 1 | 0.021 | 0.014 | 0.016 | 0.010 | 0.019 | 0.018 | 0.016 | 0.014 | 0.012 | 0.016 | > 100 | –
2 | CC[C@H]1[C@@H](O)[C@@H]2[C@H](CC[C@]3(C)[C@@H]([C@H](C)CCC(=O)NS(C)(=O)=O)CC[C@@H]23)[C@@]2(C)CC[C@H](F)C[C@@H]12 [9-7] | A (efficacy >400%) | 1 to 10 | – | – | – | – | – | – | – | – | – | – | > 100 | 0.022 and 0.037
3 | CC[C@H]1[C@@H](O)[C@@H]2[C@H](CC[C@]3(C)[C@@H]([C@H](C)CCNC(=O)NS(=O)(=O)c4ccc(C(C)(C)CF)cc4)CC[C@@H]23)[C@@]2(C)CCC(F)(F)C[C@@H]12 [10-1] | B (300%<efficacy <=400%) | < 1 | 0.025 | 0.016 | 0.021 | 0.018 | 0.019 | 0.016 | 0.018 | 0.016 | 0.008 | 0.010 | > 100 | –
4 | CC[C@H]1[C@@H](O)[C@@H]2[C@H](CC[C@]3(C)[C@@H]([C@H](C)CCNC(=O)NS(=O)(=O)c4cc(F)ccc4F)CC[C@@H]23)[C@@]2(C)CCC(F)(F)C[C@@H]12 [10-2] | C (100%<efficacy <=300%) | < 1 | 0.006 | 0.004 | 0.010 | 0.018 | 0.018 | 0.019 | 0.021 | 0.019 | 0.018 | 0.018 | > 100 | –
5 | CC[C@H]1[C@@H](O)[C@@H]2[C@H](CC[C@]3(C)[C@@H]([C@H](C)CCNC(=O)NS(=O)(=O)c4cc(F)cc(F)c4)CC[C@@H]23)[C@@]2(C)CCC(F)(F)C[C@@H]12 [10-3] | C (100%<efficacy <=300%) | < 1 | 0.010 | 0.004 | 0.014 | 0.016 | 0.023 | 0.018 | 0.023 | 0.021 | 0.012 | 0.018 | > 100 | –
6 | CC[C@H]1[C@@H](O)[C@@H]2[C@H](CC[C@]3(C)[C@@H]([C@H](C)CCNC(=O)NS(=O)(=O)c4cccs4)CC[C@@H]23)[C@@]2(C)CCC(F)(F)C[C@@H]12 [10-4] | C (100%<efficacy <=300%) | < 1 | −0.004 | 0.001 | 0.008 | 0.022 | 0.013 | 0.015 | 0.013 | 0.010 | 0.010 | 0.020 | > 100 | –
